Legend:
[1] = system: HOTAIR target genes; experiment: qPCR RNA level of HOTAIR target genes in tumor cell lines; type: cell-based
Protocol: FIG. 2B: The variations in RNA level of a target gene 48 h after treating with 40 nM of 36806 in multiple tumor cell lines.
FIG. 4A: RNA levels change of target genes in glioma and breast cancer cell lines after treating with 40 uM of 36806 for 48 hours.
FIG. 4C: RNA levels change of target genes after treating with low-dose 36806 concentration gradient for 48 hours.
(§1) Therefore, 36806 is capable of inhibiting the binding of HOTAIR to EZH2 at low concentrations and interfering with the recruitment of PRC2 to target genes, to relieve the target genes from silent suppression of histone methylation, thereby altering the function of epigenetic regulation.

[2] = system: MDA-MB-231 breast cancer orthotopic model; experiment: Breast cancer orthotopic model established with MDA-MB-231 cell line; type: in vivo, mouse; details: 50 mg/kg intraperitoneal
From the text: To further verify the anti-tumor effect of 36806 in vivo, a breast cancer orthotopic model is established by using a MDA-MB-231 cell line. […] The tumor volume measured on the body surface was reduced, and the size and wet weight of the tumor after dissection were reduced as well (FIGS. 6C-6D). […] HE staining confirmed the orthotopic lung metastasis of breast cancer (FIG. 6F). […] The above is consistent with the results of in-vitro experiments, that is, 36806 can inhibit the proliferation and metastasis of breast cancer orthotopic model.
A breast cancer orthotopic model is established by using a MDA-MB-231 cell line. 0.2 mg/kg 36806 in combination with 0.2 mg/kg DZNEP served as a combination group (the molar ratio was about 1:1), 0.2 mg/kg 36806 and 1 mg/kg DZNEP served as single-drug groups, and DMSO served as a control group.

[3] = system: H3K27me3 in the promoter region of the target genes; experiment: CHIP experiments, H3K27me3 and RNA polymerase II in promoter region of target genes; type: cell-based
From the text: FIG. 3F: Chromatin immunoprecipitation (CHIP) experiments verified that 36806 affected the recruitment of PRC2 by HOTAIR after hindering the binding of HOTAIR to EZH2, such that the level of H3K27me3 in the promoter region of the target genes was reduced and the target genes were transcriptionally activated.
FIG. 5A: The Site1 region before the transcription initiation of APC2 is a transcription promoter region of APC2 and a binding region of H3K27me3.
FIG. 5B: After the treatment with 36806, the binding of H3K27me3 in Site1 region was weakened, and the binding of RNA polymerase II was strengthened.
(§2) Therefore, the inhibiting effect of 36806 on HOTAIR-EZH2 is specific.
(§3) Among the three predicted H3K27me3 binding sites in the promoter region of the target gene adenomatous polyposis coli 2 (APC2), sitel is a significant binding region of H3K27me3 (FIG. 5A). After the treatment with 36806, the binding of H3K27me3 in sitel region was weakened, and the binding of RNA polymerase II was strengthened (FIGS. 5B and 5C). […] APC2 is a tumor suppressor gene that can participate in the degradation of beta-catenin by ubiquitination and can inhibit the WNT signal path. The increased expression of APC2 can boost the degradation of beta-catenin. The nucleus-cytoplasm distribution of beta-catenin of cells in the treated group was decreased compared with that of the DMSO group (FIGS. 5D-5F). In this way, the downstream transcription of beta-catenin is inhibited, the expression of downstream EMT-related gene of multiple tumor cell lines is inhibited, and the protein expression is reduced (FIGS. 5G). Therefore, the invasion of tumor cells is weakened (FIG. 5H). Therefore, 36806 can inhibits the WNT signal path, reverses tumor EMT, and reduces tumor invasion and metastasis by increasing the expression level of target gene APC2.

[4] = system: binding of HOTAIR to the target genes; experiment: CHIRP experiments, binding of HOTAIR to target genes; details: 40 nM
From the text: as §2

[5] = system: HOTAIR target genes; experiment: Western blot of protein level of HOTAIR target genes; type: cell-based
Protocol: as §1
The combination index (CI) of 36806 and DZNEP was measured by CalcuSyn software. […] After the transfection of EZH2 interfering RNA, combined with 36806 treatment, the transcription level of HOTAIR's target genes was higher (FIG. 7C). […] When used in combination with low-dose 36806, the dosage of DZNEP can be reduced by ⅘ (FIG. 7D).

[6] = system: multiple tumor cell lines; details: glioblastoma (U87-MG, LN229, primary N33), breast cancer (MDA-MB-231, MCF-7), HeLa, A375, SGC-7901, MGC-803, HepG2, PC9 cell lines
Protocol: Toxicity tests were then performed in multiple tumor cell lines.

[7] = system: glioblastoma, breast cancer, melanoma and gastric cancer cell lines; experiment: Transwell invasion assay; type: cell-based; details: low-dose 40 nM (FIG. 5H)
From the text: as §3

[8] = system: beta-catenin; experiment: Immunofluorescence and WB of beta-catenin and downstream EMT-related genes; type: cell-based
From the text: as §3

[9] = 40 uM, 48 hours, glioma and breast cancer cell lines
[10] = low concentration gradient of 10 nM to 10 uM, 48 hours

CC(C)NCC1Cc2cc(Cl)cc(Cl)c2O1 (stereo not drawn) [compound 36806, N-[(5,7-dichloro-2,3-dihydro-1-benzofuran-2-yl)methyl]propan-2-amine]
mRNA level of HOTAIR's target genes HOXD10, PCDH10, PCDHB5, NLK, APC2 [1, 9]: increase
expression level of HOTAIR target genes ([1]; RNA level, 40 nM, 48 h, multiple tumor cell lines): up-regulate
RNA level of the target genes [1, 10]: increased
expression of APC2 (immunofluorescence of tissue sections) [2]: increased
expression of beta-catenin (immunofluorescence of tissue sections) [2]: decreased
expression of target genes HOXD10 and PCDH10 (immunofluorescence of tissue sections) [2]: increased
tumor size (bioluminescence imaging) ([2]; 20 days and 40 days, vs DMSO group): significantly reduced
size and wet weight of the tumor after dissection ([2]; vs DMSO group): reduced
tumor volume measured on the body surface ([2]; vs DMSO group): reduced
probability and scope of lung metastasis ([2]; organ imaging): smaller
level of H3K27me3 in the promoter region of the target genes (CHIP) [3]: reduced
binding of H3K27me3 in site1 region of APC2 promoter ([3]; after treatment with 36806): weakened
binding of RNA polymerase II in site1 region of APC2 promoter ([3]; after treatment with 36806): strengthened
binding of HOTAIR to the target genes (CHIRP) [4]: without affecting
protein level of HOTAIR's target genes HOXD10, PCDH10, PCDHB5, NLK, APC2 [5, 9]: increase
protein level of the target genes, time gradient ([5]; 40 uM, time gradient): changed
protein level of the target genes [5, 10]: increased
IC50 of 36806 [6]: low
invasion of tumor cells [7]: weakened
nucleus-cytoplasm distribution of beta-catenin ([8]; compared with DMSO group): decreased
protein expression of downstream EMT-related genes ([8]; multiple tumor cell lines): reduced

Reference: patent US11484522B2, “Composite formulation and use thereof for preparing drugs for the treatment of tumours” (TIANJIN MEDICAL UNIVERSITY GENERAL HOSPITAL, priority 2018, dated 2022)
